In patent publication US12144856B2 (priority 2019, dated 2024):

Tests used:
[1] = test system: 2009 pandemic influenza A(H1N1) virus and avian influenza virus A(H7N9); conditions: cited from earlier work
influenza vaccine [2] = conditions: older adults, cited from earlier work
influenza vaccine [3] = conditions: young adults; topical imiquimod vs sham aqueous cream; cited from earlier work
[4] = test system: split-virion seasonal influenza vaccine; assay: Antibody titers after influenza vaccination with or without intraperitoneal miltefosine (FIG. 1); assay type: in vivo, mice
Text: FIG. 1: FIG. 1 depicts antibody titers measured 14 days after vaccination with or without miltefosine. A second dose of vaccine was provided on day 14. Circles indicate data from the miltefosine+vaccine treatment group; squares indicate data from the vaccine only treatment group; triangles indicate data from the miltefosine only treatment group; inverted triangles indicate data from a saline-treated control group.
Miltefosine is an FDA-approved anti-parasitic drug that is used in the treatment of Leishmaniasis. The immunomodulating effects of miltefosine include being an agonist of TLR4 and TLR9 (Das S, Rani M, Pandey K, Sahoo G C, Rabidas V N, Singh D, et al. Combination of paromomycin and miltefosine promotes TLR4-dependent induction of antileishmanial immune response in vitro. J Antimicrob Chemother 2012; 67:2373-8; Mukherjee A K, Gupta G, Adhikari A, Majumder S, Kar Mahapatra S, Bhattacharyya Majumdar S, et al. Miltefosine triggers a strong proinflammatory cytokine response during visceral leishmaniasis: role of TLR4 and TLR9. Int Immunopharmacol 2012; 12:565-72), enhancing IFN-γ receptor (Wadhone P, Maiti M, Agarwal R, Kamat V, Martin S, Saha B. Miltefosine promotes IFN-gamma-dominated anti-leishmanial immune response. J Immunol 2009; 182:7146-54), promoting IL12-dependent TH1 response (Wadhone P, Maiti M, Agarwal R, Kamat V, Martin S, Saha B. Miltefosine promotes IFN-gamma-dominated anti-leishmanial immune response. J Immunol 2009; 182:7146-54), and inhibiting PI3K-Akt pathway (Lucas A, Kim Y, Rivera-Pabon O, Chae S, Kim D H, Kim B. Targeting the PI3K/Akt cell survival pathway to induce cell death of HIV-1 infected macrophages with alkylphospholipid compounds. PLoS One 2010; 5). Topical formulation of miltefosine has been evaluated in the treatment of breast carcinoma (Clive S, Gardiner J, Leonard R C. Miltefosine as a topical treatment for cutaneous metastases in breast carcinoma. Cancer Chemother Pharmacol 1999; 44 Suppl:S29-30). […] It was also noted that both IgG1 and IgG2a responses were enhanced by the use of miltefosine in combination with intradermal vaccination.

influenza infection [5] = assay: Survival of mice infected 3 or 7 days after a single influenza vaccination with or without miltefosine (FIGS. 2A, 2B); assay type: in vivo; conditions: intraperitoneal miltefosine adjuvant + vaccine vs vaccine without adjuvant; infected 3 or 7 days after vaccination
Procedure: FIGS. 2A and 2B: FIG. 2A depicts survival rates of infected mice that were vaccinated with or without miltefosine 3 days prior to infection. Data from treatment with 0.2 mg miltefosine+vaccine is represented by a combination a circle and a solid line. Data from treatment with 0.008 mg miltefosine+vaccine is represented by a combination of a rhombus and a dashed line. Data from treatment with 0.2 mg miltefosine only is represented by a dash/dot line. Data from treatment with vaccine only is represented by a combination of a square and a solid line. Data from treatment with a saline control is represented by a dotted line. FIG. 2B depicts survival rates of infected mice that were vaccinated with (circle/dashed line, rhombus/dashed line, or black) or without (square/solid line) miltefosine 7 days prior to infection. Data from treatment with 1 mg miltefosine+vaccine is represented by a combination a triangle and a solid line. Data from treatment with 0.2 mg miltefosine+vaccine is represented by a combination a circle and a solid line. Data from treatment with 0.008 mg miltefosine+vaccine is represented by a combination of a rhombus and a dashed line. Data from treatment with 0.2 mg miltefosine only is represented by a dash/dot line. Data from treatment with vaccine only is represented by a combination of a square and a solid line. […]

influenza infection [6] = assay: Post-infection antibody, hemagglutination and microneutralization titers of mice vaccinated with or without miltefosine (FIG. 3); assay type: in vivo; conditions: intraperitoneal miltefosine + vaccine vs vaccine only
Text: Circles indicate data from the miltefosine+vaccine treatment group; squares indicate data from the vaccine only treatment group; triangles indicate data from the miltefosine only treatment group; inverted triangles indicate data from a saline-treated control group.
In FIG. 3 circles indicate data from the miltefosine+vaccine treatment group, squares indicate data from the vaccine only treatment group, triangles indicate data from the miltefosine only treatment group, and inverted triangles indicate data from a saline-treated control group.

[7] = miltefosine + vaccine vs vaccine only, 14 days after vaccination

CC(C)Cn1cnc2c(N)nc3ccccc3c21 [imiquimod]
Death during lethal challenge ([1]; 2009 pandemic A(H1N1) and A(H7N9) lethal challenge): reduction | Immunogenicity of the influenza vaccine ([1]; mouse model): accelerate and augment | Antibody response (influenza vaccine [2]; topical imiquimod vs sham aqueous cream before intradermal vaccine): more rapid and robust | Rate of hospitalization and pneumonia (influenza vaccine [2]; topical imiquimod vs sham aqueous cream): significantly lower | Antibody responses for homologous virus (influenza vaccine [3]): faster and more robust

CCCCCCCCCCCCCCCCOP(=O)([O-])OCC[N+](C)(C)C [miltefosine]
Hemagglutination titer [4, 7]: improved | Microneutralization titer [4, 7]: improved | IgG titer ([4]; miltefosine in combination with influenza vaccination vs vaccine only, two weeks post-immunization): significantly increased | IgG1 and IgG2a responses ([4]; miltefosine in combination with vaccination): enhanced | Survival (influenza infection [5]): significantly improved | IgG1/IgG2 ratio (influenza infection [6]): greater | HAI titer (influenza infection [6]; 4 days post-infection): significantly higher | MN titer (influenza infection [6]; 4 days post-infection): significantly higher

CCCCC/C=C\C/C=C\C/C=C\C/C=C\CCCC(=O)N[C@H](C)CO [(R)-methanandamide]
CC50 (in vitro): > 60 µM
